Molecules are shown by their SMILES.

In the first assay the target is T1, Syk (Homo sapiens, UniProt P43405).
T1 construct: purchased Carna Biosciences
Kind of assay: Syk HTRF assay. It counts as biochemical. As to conditions: IC50 activity level, read-out: Activity Level. The method, boiled down:
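Read-out is the 665 nm/615 nm time-resolved fluorescence ratio after EDTA stop and Eu-anti-phosphotyrosine plus streptavidin-DyLight 647 detection. Reaction ran 1 h at room temperature with start mix of 87.5 μM ATP and 80 nM substrate peptide in pH 7.6 HEPES/MgCl2 buffer.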
(In TR-FRET formats the signal depends on donor and acceptor labels being close together.)
In the case of `c1ccc(Nc2nc3cccc(-c4ccc5nc(CN6CCCC6)[nH]c5c4)n3n2)cc1` [Example 428, N-phenyl-5-(2-(pyrrolidin-1-ylmethyl)-1H-benzo[d]imidazol-6-yl)-[1,2,4]triazolo[1,5-a]pyridin-2-amine], the IC50 fell in the range of 0.005 to 250 nM.

On to `NCCNc1cc(-c2cccc3nc(Nc4ccccc4)nn23)ccn1` [Example 447, N^1-(4-(2-(phenylamino)-[1,2,4]triazolo[1,5-a]pyridin-5-yl)pyridin-2-yl)ethane-1,2-diamine], for which the IC50 is 0.005 to 250 nM.

Turning to `CNCc1nc2cc(-c3cccc4nc(Nc5ccccc5)nn34)ccc2[nH]1` [Example 487, 5-(2-((methylamino)methyl)-1H-benzo[d]imidazol-5-yl)-N-phenyl-[1,2,4]triazolo[1,5-a]pyridin-2-amine], the IC50 is 0.005 to 250 nM.

Take `NC(=O)c1ccc(Nc2nc3cccc(NC4CCCCC4)n3n2)cc1` [Example 560, 4-(5-(cyclohexylamino)-[1,2,4]triazolo[1,5-a]pyridin-2-ylamino)benzamide]: the IC50 lay within 500 to 1000 nM.

As for `Fc1ccc(Nc2nc3cccc(NC4CCCNC4)n3n2)cc1` (stereo in doubt) [Example 462, (R)-N^2-(4-fluorophenyl)-N^5-(piperidin-3-yl)-[1,2,4]triazolo[1,5-a]pyridin-2,5-diamine], the IC50 lay within 1000 to 10000 nM.

As for `OC[C@H](Nc1cccc2nc(Nc3ccc(C(F)(F)F)cc3)nn12)c1ccccc1` [Example 412, (R)-2-phenyl-2-(2-(4-(trifluoromethyl)phenylamino)-[1,2,4]triazolo[1,5-a]pyridin-5-ylamino)ethanol], the IC50 was in the range of 1000 to 10000 nM.

Regarding `c1ccc(Nc2nc3cccc(Nc4ccccc4)n3n2)cc1` [Example 529, N^2,N^5-diphenyl-[1,2,4]triazolo[1,5-a]pyridine-2,5-diamine], the IC50 fell in the range of 250 to 500 nM.

As for `COc1cc(-c2cccc3nc(Nc4ccccc4)nn23)ccn1` [Example 521], the IC50 lay within 500 to 1000 nM.

For `c1ccc(Nc2nc3cccc(-c4cccnc4)n3n2)cc1` [Example 524, N-phenyl-5-(pyridin-3-yl)-[1,2,4]triazolo[1,5-a]pyridin-2-amine], the IC50 is 1000 to 10000 nM.

Consider `FC(F)(F)c1ccc(Nc2nc3cccc(N[C@H]4CCCNC4)n3n2)cc1` [Example 469, (S)-N^5-(piperidin-3-yl)-N^2-(4-(trifluoromethyl)phenyl)-[1,2,4]triazolo[1,5-a]pyridin-2,5-diamine], for which the IC50 fell in the range of 0.005 to 250 nM.

`c1ccc(Nc2nc3cccc(CC4CCNCC4)n3n2)cc1` [Example 482, N-phenyl-5-(piperidin-4-ylmethyl)-[1,2,4]triazolo[1,5-a]pyridin-2-amine]: the IC50 was in the range of 0.005 to 250 nM.

Regarding `c1ccc(Cc2cccc3nc(Nc4ccccc4)nn23)cc1` [Example 506, 5-benzyl-N-phenyl-[1,2,4]triazolo[1,5-a]pyridin-2-amine], the IC50 was in the range of 1000 to 10000 nM.

Take `NCCCc1cccc2nc(Nc3ccccc3)nn12` [Example 498, 5-(3-aminopropyl)-N-phenyl-[1,2,4]triazolo[1,5-a]pyridin-2-amine]: the IC50 lay in the range of 1000 to 10000 nM.

In the case of `NC(=O)c1cc(-c2cccc3nc(Nc4ccc(F)cc4)nn23)ccn1` [Example 416, 4-(2-(4-fluorophenylamino)-[1,2,4]triazolo[1,5-a]pyridin-5-yl)picolinamide], the IC50 lay in the range of 1000 to 10000 nM.

For the compound `c1cc(N[C@@H]2CCCNC2)n2nc(Nc3ccc4c(c3)CNC4)nc2c1` [Example 449], the IC50 fell in the range of 0.005 to 250 nM.

The same assay, now with this note: activity levels A-D, read-out: Activity Level (IC50 in the Syk HTRF assay).
Consider `CNC(=O)c1ccc(Nc2nc3cccc(Cc4cccc(O)c4)n3n2)cc1` [Example 292, 4-(5-(3-hydroxybenzyl)-[1,2,4]triazolo[1,5-a]pyridin-2-ylamino)-N-methylbenzamide], for which the IC50 is 0.005 to 250 nM.

For the compound `OC1CCN(c2cccc3nc(Nc4ccc(C(F)(F)F)cc4)nn23)C1` (stereo in doubt) [Example 333, (S)-1-(2-(4-(trifluoromethyl)phenylamino)-[1,2,4]triazolo[1,5-a]pyridin-5-yl)pyrrolidin-3-ol], the IC50 lay in the range of 250 to 500 nM.

Regarding `O[C@H]1CCCN(Cc2cccc3nc(Nc4ccc(C(F)(F)F)cc4)nn23)C1` [Example 300, (S)-1-((2-(4-(trifluoromethyl)phenylamino)-[1,2,4]triazolo[1,5-a]pyridin-5-yl)methyl)piperidin-3-ol], the IC50 was 1000 to 10000 nM.

For `O=C1NCc2ccc(Nc3nc4cccc(N[C@H]5CC[C@@H](O)CC5)n4n3)cc21` [Example 260, cis-6-(5-(4-hydroxycyclohexylamino)-[1,2,4]triazolo[1,5-a]pyridin-2-ylamino)isoindolin-2-one], the IC50 fell in the range of 500 to 1000 nM.

`O=C1NCCC1NCc1cccc2nc(Nc3ccc(C(F)(F)F)cc3)nn12` (racemic) [Example 207, (±)-3-((2-(4-(trifluoromethyl)phenylamino)-[1,2,4]triazolo[1,5-a]pyridin-5-yl)methylamino)pyrrolidin-2-one]: the IC50 is 1000 to 10000 nM.

For `NCCOc1cccc2nc(Nc3ccc(C(F)(F)F)cc3)nn12` [Example 296, 5-(2-aminoethoxy)-N-(4-(trifluoromethyl)phenyl)-[1,2,4]triazolo[1,5-a]pyridin-2-amine], the IC50 was in the range of 500 to 1000 nM.

On to `CC1C(=O)NCCN1Cc1cccc2nc(Nc3ccc(C(F)(F)F)cc3)nn12` (stereo in doubt) [Example 275, (S)-3-methyl-4-((2-(4-(trifluoromethyl)phenylamino)-[1,2,4]triazolo[1,5-a]pyridin-5-yl)methyl)piperazin-2-one], for which the IC50 lay within 0.005 to 250 nM.

For `CC(C)(O)[C@H]1CC[C@@H](Nc2cccc3nc(Nc4ccc(C(F)(F)F)cc4)nn23)CC1` [Example 385, cis-2-(4-(2-(4-(trifluoromethyl)phenylamino)-[1,2,4]triazolo[1,5-a]pyridin-5-ylamino)cyclohexyl)propan-2-ol], the IC50 is 500 to 1000 nM.

For the compound `O=C1Cc2ccc(Nc3nc4cccc(N[C@H]5CC[C@@H](O)CC5)n4n3)cc2N1` [Example 238, cis-6-(5-(4-hydroxycyclohexylamino)-[1,2,4]triazolo[1,5-a]pyridin-2-ylamino)indolin-2-one], the IC50 lay in the range of 0.005 to 250 nM.

On to `FC(F)(F)c1ccc(Nc2nc3cccc(O[C@H]4CCCNC4)n3n2)cc1` [Example 362, (S)-5-(piperidin-3-yloxy)-N-(4-(trifluoromethyl)phenyl)-[1,2,4]triazolo[1,5-a]pyridin-2-amine], for which the IC50 fell in the range of 1000 to 10000 nM.

With `O[C@@H]1CCC[C@H]1Nc1cc(-c2cccc3nc(Nc4ccc(C(F)(F)F)cc4)nn23)ccn1` [Example 246, (1R,2R)-2-(4-(2-(4-(trifluoromethyl)phenylamino)-[1,2,4]triazolo[1,5-a]pyridin-5-yl)pyridin-2-ylamino)cyclopentanol], the IC50 is 500 to 1000 nM.

Consider `NC(=O)c1cncc(Nc2nc3cccc(N[C@H]4CC[C@@H](O)CC4)n3n2)c1` [Example 369, cis-5-(5-(4-hydroxycyclohexylamino)-[1,2,4]triazolo[1,5-a]pyridin-2-ylamino)nicotinamide], for which the IC50 was in the range of 1000 to 10000 nM.

The assay is the same for the next values; noted with them: read-out: Activity Level (Syk HTRF assay IC50).
In the case of `CC1(C)C(=O)Nc2cc(Nc3nc4cccc(N[C@H]5CC[C@H](O)CC5)n4n3)ccc21` (stereo in doubt) [Example 175, trans-6-(5-(4-hydroxycyclohexylamino)-[1,2,4]triazolo[1,5-a]pyridin-2-ylamino)-3,3-dimethylindolin-2-one], the IC50 was 0.005 to 250 nM.

Turning to `CC1(C)C(=O)Nc2cc(Nc3nc4cccc(NC5CCCNC5)n4n3)ccc21` (stereo in doubt) [Example 154, (S)-3,3-dimethyl-6-(5-(piperidin-3-ylamino)-[1,2,4]triazolo[1,5-a]pyridin-2-ylamino)indolin-2-one], the IC50 was 0.005 to 250 nM.

`COCc1n[nH]c2cc(Nc3nc4cccc(CC5CCOCC5)n4n3)ccc12` [compound 104, N-(3-(methoxymethyl)-1H-indazol-6-yl)-5-((tetrahydro-2H-pyran-4-yl)methyl)-[1,2,4]triazolo[1,5-a]pyridin-2-amine]: the IC50 fell in the range of 0.005 to 250 nM.

Turning to `Cc1n[nH]c2cc(Nc3nc4cccc(Cc5cc[nH]c(=O)c5)n4n3)ccc12` [Example 183, 4-((2-(3-methyl-1H-indazol-6-ylamino)-[1,2,4]triazolo[1,5-a]pyridin-5-yl)methyl)pyridin-2(1H)-one], the IC50 was 0.005 to 250 nM.

`Cc1n[nH]c2ccc(Nc3nc4cccc(CC5CCOCC5)n4n3)cc12` [compound 116, N-(3-methyl-1H-indazol-5-yl)-5-((tetrahydro-2H-pyran-4-yl)methyl)-[1,2,4]triazolo[1,5-a]pyridin-2-amine]: the IC50 lay in the range of 0.005 to 250 nM.

On to `Cn1nc(N)c2ccc(Nc3nc4cccc(-c5ccccc5)n4n3)cc21` [compound 35], for which the IC50 lay in the range of 0.005 to 250 nM.

As to `Cc1n[nH]c2cc(Nc3nc4cccc(N[C@H]5CCOC5)n4n3)ccc12` [Example 182, (S)-N^2-(3-methyl-1H-indazol-6-yl)-N^5-(tetrahydrofuran-3-yl)-[1,2,4]triazolo[1,5-a]pyridin-2,5-diamine], the IC50 was 250 to 500 nM.

In the case of `Cc1n[nH]c2cc(Nc3nc4cccc(NC[C@@H]5CC[C@H](O)C5)n4n3)ccc12` [Example 178, (1S,3R)-3-((2-(3-methyl-1H-indazol-6-ylamino)-[1,2,4]triazolo[1,5-a]pyridin-5-ylamino)methyl)cyclopentanol], the IC50 was 0.005 to 250 nM.

In the case of `Cn1cnc2ccc(Nc3nc4cccc(-c5cccc(F)c5)n4n3)cc21` [compound 4], the IC50 lay within 0.005 to 250 nM.

As for `CC(=O)Nc1ccc(-c2cccc3nc(Nc4ccccc4)nn23)cc1` [compound 79, N-(4-(2-(phenylamino)-[1,2,4]triazolo[1,5-a]pyridin-5-yl)phenyl)acetamide], the IC50 was in the range of 250 to 500 nM.

With `c1ccc(-c2cccc3nc(Nc4ccc5[nH]ncc5c4)nn23)cc1` [compound 61], the IC50 is 0.005 to 250 nM.

As for `Nc1ccc(-c2cccc3nc(Nc4ccccc4)nn23)cc1` [compound 82, 5-(4-aminophenyl)-N-phenyl-[1,2,4]triazolo[1,5-a]pyridin-2-amine], the IC50 was 250 to 500 nM.

Regarding `Cc1cc(Nc2nc3cccc(CC4CCOCC4)n3n2)cc2c1C(C)(C)C(=O)N2` [compound 126], the IC50 fell in the range of 0.005 to 250 nM.

Values taken from patent US8299056B2 (Signal Pharmaceuticals, LLC, priority 2008, dated 2012).
